Source: patent US20070191460A1, “Use of Benzo-Heteroaryl Sulfamide Derivatives for the Treatment of Disease Modification / Epileptogenesis” (priority 2006, published 2007)

Test system: amygdala kindled rat model of partial epilepsy
Assay: In Vivo, Amygdala Kindling Assay
Design: species or system Sprague-Dawley rats
From the text: The development of amygdala kindling is an established model of epileptogenesis. (Amano K, Hamada K, Yagi K, Seino M. Antiepileptic effects of topiramate on amygdaloid kindling in rats. Epilepsy Res. 1998 July;31(2):123-8; Barton M E, White H S. The effect of CGX-1007 and CI-1041, novel NMDA receptor antagonists, on kindling acquisition and expression. Epilepsy Res. 2004 March;59(1):1-12; Loscher W, Honack D, Rundfeldt C. Antiepileptogenic effects of the novel anticonvulsant levetiracetam (ucb L059)in the kindling model of temporal lobe epilepsy. J Pharmacol Exp Ther. 1998 February;284(2):474-9; McNamara J O. Analyses of the molecular basis of kindling development. Psychiatry Clin Neurosci. 1995 June; 49(3):S175-8. Review.; Morimoto K, Katayama K, Inoue K, Sato K. Effects of competitive and noncompetitive NMDA receptor antagonists on kindling and LTP. Pharmacol Biochem Behav. 1991 December;40(4):893-9; Racine, R. J. 1972. Modification of seizure activity by electrical stimulation. II. Motor seizure. Electroencephalogr. Clin. Neurophysiol. 32, 281-294). The kindled rat model of partial epilepsy is an accepted model of epileptogenesis (McNamara J O. Analyses of the molecular basis of kindling development. Psychiatry Clin Neurosci. 1995 June;49(3):S175-8. Review.).
Briefly, the assay procedure was as follows. Adult male, Sprague-Dawley rats weighing between 250-300 g were obtained from Charles River, Wilmington, Mass. were used for experimental procedures. All animals were housed on a 12:12 light dark cycle and permitted free access to both food (Prolab RMH 3000) and water except when removed from the home cage for experimental procedures. Animals were cared for in a matter consistent with the recommendations detailed in the National Research Council Publication, “Guide for the Care and Use of Laboratory Animals” in a temperature controlled, pesticide-free facility. Kindling stimulations were routinely performed between 9 AM-2 PM to avoid any circadian variations.
Compound #1 was triturated in a small volume of 0.5% methylcellulose, sonicated for 10 min, and brought to a final volume with 0.5% methylcellulose. The compound was administered systemically (i.p.) in a volume of 0.04 ml/10 g body weight and all tests were conducted at the pre-determined time of peak effect of 0.5 hours after i.p. administration.
The ability of Compound #1 to block the expression of amygdala kindled seizures was determined. For this study, rats were anaesthetized with a ketamine (120 mg/kg, i.p.) and xylazine (12 mg/kg, i.p.) cocktail. […]
Amygdala kindling was then performed according to the following protocol (Barton and White, 2004). […] The behavioral seizure score and AD duration was recorded for rats in each treatment group. […]

Compound: NS(=O)(=O)NCc1csc2ccccc12 [Compound #1, N-(benzo[b]thien-3-ylmethyl)-sulfamide]
- behavioral seizure score (Racine scale) at the conclusion of the drug- and stimulus-free period (100 mg/kg i.p. 30 min before daily amygdala stimulation (200 μA, 2 s) for up to 13 days, re-challenged without drug after one-week stimulus- and drug-free period, n=10 rats, vehicle=4.6±0.24): 0.1±0.11
- after-discharge (AD) duration over the kindling acquisition phase, versus vehicle (100 mg/kg i.p., daily stimulation, days 1-13, progressive increase in both groups): No statistical difference
- acquisition of the full generalized kindled seizure (100 mg/kg i.p., rats, kindling acquisition): prevented the acquisition of the full generalized kindled seizure
- delay of the acquisition of kindling (stimulated in the absence of drug after the drug-free week, seizure score rose parallel to vehicle-treated rats): delayed the acquisition of kindling by several days
